Test results taken from patent US8541460B2, “PDK-1/Akt signaling inhibitors” (The Ohio State University, priority 2003, dated 2013).

Experiments:
immunoprecipitated Akt = assay: Direct inhibition of immunoprecipitated Akt kinase activity; format: biochemical, human
COLO 205 = assay: NCI DTP cell line screen (SRB), Colon Cancer; format: cell-based, human
Description: (§1) Screening of compounds 70 and 71 against several cancer cell lines The human tumor cell lines of the cancer screening panel are grown in RPMI 1640 medium containing 5% fetal bovine serum and 2 mM L-glutamine. For a typical screening experiment, cells are inoculated into 96 well microtiter plates in 100 μL at plating densities ranging from 5,000 to 40,000 cells/well depending on the doubling time of individual cell lines. After cell inoculation, the microtiter plates are incubated at 37° C., 5% CO2, 95% air and 100% relative humidity for 24 h prior to addition of experimental drugs.
(§2) After 24 h, two plates of each cell line are fixed in situ with TCA, to represent a measurement of the cell population for each cell line at the time of drug addition (Tz). Experimental drugs are solubilized in dimethyl sulfoxide at 400-fold the desired final maximum test concentration and stored frozen prior to use. At the time of drug addition, an aliquot of frozen concentrate is thawed and diluted to twice the desired final maximum test concentration with complete medium containing 50 μg/ml gentamicin. Additional four, 10-fold or ½ log serial dilutions are made to provide a total of five drug concentrations plus control. Aliquots of 100 μl of these different drug dilutions are added to the appropriate microtiter wells already containing 100 μl of medium, resulting in the required final drug concentrations.
(§3) Following drug addition, the plates are incubated for an additional 48 h at 37° C., 5% CO2, 95% air, and 100% relative humidity. For adherent cells, the assay is terminated by the addition of cold TCA. Cells are fixed in situ by the gentle addition of 50 μl of cold 50% (w/v) TCA (final concentration, 10% TCA) and incubated for 60 minutes at 4° C. The supernatant is discarded, and the plates are washed five times with tap water and air dried. Sulforhodamine B (SRB) solution (100 μl) at 0.4% (w/v) in 1% acetic acid is added to each well, and plates are incubated for 10 minutes at room temperature. After staining, unbound dye is removed by washing five times with 1% acetic acid and the plates are air dried. Bound stain is subsequently solubilized with 10 mM trizma base, and the absorbance is read on an automated plate reader at a wavelength of 515 nm. For suspension cells, the methodology is the same except that the assay is terminated by fixing settled cells at the bottom of the wells by gently adding 50 μl of 80% TCA (final concentration, 16% TCA). Using the seven absorbance measurements [time zero, (Tz), control growth, (C), and test growth in the presence of drug at the five concentration levels (Ti)], the percentage growth is calculated at each of the drug concentrations levels. Percentage growth inhibition is calculated as: [(Ti−Tz)/(C−Tz)]×100 for concentrations for which Ti>/=Tz [(Ti−Tz)/Tz]×100 for concentrations for which Ti<Tz
(§4) Three dose response parameters are calculated for each experimental agent. […] The drug concentration resulting in total growth inhibition (TGI) is calculated from Ti=Tz. […] Values are calculated for each of these three parameters if the level of activity is reached; however, if the effect is not reached or is exceeded, the value for that parameter is expressed as greater or less than the maximum or minimum concentration tested.
(§5) The methods described were used to test compounds 70 and 71 on a panel of sixty cell lines under a screening service provided by the Developmental Therapeutics Program at the National Institutes of Health. Shown in FIG. 1C are 1, RPMI-8226 leukemia cells; 2; NCI-H322M non-small cell lung cancer cells; 3, HT29 colon cancer cells; 4, U251 CNS cancer cells; 5, SK-MEL-28 melanoma cancer cells; 6, SK-OV-3 ovarian cancer cells; 7, RXF 393 renal cancer cells; 8, PC-3 prostate cancer cells; 9, MDA-MB-231 breast cancer cells.

HCT-15 = assay: NCI DTP cell line screen (SRB), Colon Cancer; format: cell-based
LOX IMVI = assay: NCI DTP cell line screen (SRB), Melanoma; format: cell-based
Description: as §1, §2, §3, §4, §5

M14 = assay: NCI DTP cell line screen (SRB), Melanoma; format: cell-based
Description: as §1, §2, §3, §4, §5

SK-MEL-28 = assay: NCI DTP cell line screen (SRB), Melanoma; format: cell-based
Description: as §1, §2, §3, §4, §5

SK-MEL-2 = assay: NCI DTP cell line screen (SRB), Melanoma; format: cell-based
Description: as §1, §2, §3, §4, §5

SK-MEL-5 = assay: NCI DTP cell line screen (SRB), Melanoma; format: cell-based, human
Description: as §1, §2, §3, §4, §5

UACC-62 = assay: NCI DTP cell line screen (SRB), Melanoma; format: cell-based
[1] = read-out: LC50 (the source's name)

## N=C(N)Nc1ccc(-n2nc(C(F)(F)F)cc2-c2ccc3c(ccc4ccccc43)c2)cc1 [Compound 71, 4-[5-(2-Phenanthrenyl)-3-(trifluoromethyl)-1H-pyrazol-1-yl]-phenyl-guanidine]
Immunoprecipitated Akt
  direct inhibitory effect on immunoprecipitated Akt activity: no appreciable direct inhibition
COLO 205
  GI50: 1.36 µM
  TGI: 2.69E−06
COLO 205; Log10 Concentration −4.0
  Mean Optical Densities: 0.151
  Percent Growth: −32%
COLO 205; Log10 Concentration −5.0
  Mean Optical Densities: 0.009
  Percent Growth: −96%
COLO 205; Log10 Concentration −6.0
  Mean Optical Densities: 0.930
  Percent Growth: 73%
COLO 205; Log10 Concentration −7.0
  Mean Optical Densities: 1.028
  Percent Growth: 83%
COLO 205; Log10 Concentration −8.0
  Mean Optical Densities: 1.146
  Percent Growth: 95%
HCT-15
  GI50: 1.54 µM
  TGI: 2.87E−06
HCT-15; Log10 Concentration −4.0
  Mean Optical Densities: 0.082
  Percent Growth: −71%
HCT-15; Log10 Concentration −5.0
  Mean Optical Densities: −0.003
  Percent Growth: −100%
HCT-15; Log10 Concentration −6.0
  Mean Optical Densities: 0.797
  Percent Growth: 84%
HCT-15; Log10 Concentration −7.0
  Mean Optical Densities: 0.779
  Percent Growth: 81%
HCT-15; Log10 Concentration −8.0
  Mean Optical Densities: 0.669
  Percent Growth: 64%
HCT-15; [1]
  CC50: 5.36 µM
LOX IMVI
  GI50: 1.34 µM
  TGI: 2.65E−06
LOX IMVI; Log10 Concentration −4.0
  Mean Optical Densities: 0.165
  Percent Growth: −53%
LOX IMVI; Log10 Concentration −5.0
  Mean Optical Densities: 0.008
  Percent Growth: −98%
LOX IMVI; Log10 Concentration −6.0
  Mean Optical Densities: 0.935
  Percent Growth: 72%
LOX IMVI; Log10 Concentration −7.0
  Mean Optical Densities: 1.033
  Percent Growth: 84%
LOX IMVI; Log10 Concentration −8.0
  Mean Optical Densities: 0.948
  Percent Growth: 73%
LOX IMVI; [1]
  CC50: 5.22 µM
M14
  GI50: 1.48 µM
  TGI: 2.80E−06
M14; Log10 Concentration −4.0
  Mean Optical Densities: 0.210
  Percent Growth: −33%
M14; Log10 Concentration −5.0
  Mean Optical Densities: −0.004
  Percent Growth: −100%
M14; Log10 Concentration −6.0
  Mean Optical Densities: 0.816
  Percent Growth: 81%
M14; Log10 Concentration −7.0
  Mean Optical Densities: 0.823
  Percent Growth: 82%
M14; Log10 Concentration −8.0
  Mean Optical Densities: 0.772
  Percent Growth: 74%
SK-MEL-28
  GI50: 1.56 µM
  TGI: 2.89E−06
SK-MEL-28; Log10 Concentration −4.0
  Mean Optical Densities: 0.248
  Percent Growth: −53%
SK-MEL-28; Log10 Concentration −5.0
  Mean Optical Densities: −0.002
  Percent Growth: −100%
SK-MEL-28; Log10 Concentration −6.0
  Mean Optical Densities: 1.367
  Percent Growth: 86%
SK-MEL-28; Log10 Concentration −7.0
  Mean Optical Densities: 1.408
  Percent Growth: 90%
SK-MEL-28; Log10 Concentration −8.0
  Mean Optical Densities: 1.439
  Percent Growth: 93%
SK-MEL-2
  GI50: 1.57 µM
  TGI: 2.91E−06
SK-MEL-2; Log10 Concentration −4.0
  Mean Optical Densities: 0.324
  Percent Growth: −29%
SK-MEL-2; Log10 Concentration −5.0
  Mean Optical Densities: −0.010
  Percent Growth: −100%
SK-MEL-2; Log10 Concentration −6.0
  Mean Optical Densities: 0.780
  Percent Growth: 87%
SK-MEL-2; Log10 Concentration −7.0
  Mean Optical Densities: 0.819
  Percent Growth: 97%
SK-MEL-2; Log10 Concentration −8.0
  Mean Optical Densities: 0.775
  Percent Growth: 85%
SK-MEL-5
  GI50: 2.22 µM
SK-MEL-5; Log10 Concentration −4.0
  Mean Optical Densities: 0.363
  Percent Growth: −34%
SK-MEL-5; Log10 Concentration −5.0
  Mean Optical Densities: 0.143
  Percent Growth: −74%
SK-MEL-5; Log10 Concentration −6.0
  Mean Optical Densities: 1.812
  Percent Growth: 116%
SK-MEL-5; Log10 Concentration −7.0
  Mean Optical Densities: 1.762
  Percent Growth: 111%
SK-MEL-5; Log10 Concentration −8.0
  Mean Optical Densities: 1.611
  Percent Growth: 97%
SK-MEL-5; in M (unit assumed)
  TGI: 4.07E−06
UACC-62
  GI50: 1.44 µM
  TGI: 2.74E−06
UACC-62; Log10 Concentration −4.0
  Mean Optical Densities: 0.272
  Percent Growth: −60%
UACC-62; Log10 Concentration −5.0
  Mean Optical Densities: −0.041
  Percent Growth: −100%
UACC-62; Log10 Concentration −6.0
  Mean Optical Densities: 1.301
  Percent Growth: 78%
UACC-62; Log10 Concentration −7.0
  Mean Optical Densities: 1.338
  Percent Growth: 83%
UACC-62; Log10 Concentration −8.0
  Mean Optical Densities: 1.323
  Percent Growth: 81%
UACC-62; [1]
  CC50: 5.24 µM
